Data: US20170137387A1, “PHARMACOLOGICALLY ACTIVE QUINAZOLINEDIONE DERIVATIVES” (ORION CORPORATION, priority 2014, published 2017)

What was measured:
[1] = target: T1, human GABAB1 and GABAB2 receptor subunits (Homo sapiens, UniProt O75899+Q9UBS5); assay: Potentiation of GABA dose-response, FLIPR calcium assay; assay type: cell-based; settings: compound at 10 μM; EC50 of GABA divided by EC50 of GABA in the presence of positive allosteric modulator
T1 construct: expressed in transfected cells; host or cells: CHO cells
T1 sequence (Q9UBS5 15-961 limits assumed): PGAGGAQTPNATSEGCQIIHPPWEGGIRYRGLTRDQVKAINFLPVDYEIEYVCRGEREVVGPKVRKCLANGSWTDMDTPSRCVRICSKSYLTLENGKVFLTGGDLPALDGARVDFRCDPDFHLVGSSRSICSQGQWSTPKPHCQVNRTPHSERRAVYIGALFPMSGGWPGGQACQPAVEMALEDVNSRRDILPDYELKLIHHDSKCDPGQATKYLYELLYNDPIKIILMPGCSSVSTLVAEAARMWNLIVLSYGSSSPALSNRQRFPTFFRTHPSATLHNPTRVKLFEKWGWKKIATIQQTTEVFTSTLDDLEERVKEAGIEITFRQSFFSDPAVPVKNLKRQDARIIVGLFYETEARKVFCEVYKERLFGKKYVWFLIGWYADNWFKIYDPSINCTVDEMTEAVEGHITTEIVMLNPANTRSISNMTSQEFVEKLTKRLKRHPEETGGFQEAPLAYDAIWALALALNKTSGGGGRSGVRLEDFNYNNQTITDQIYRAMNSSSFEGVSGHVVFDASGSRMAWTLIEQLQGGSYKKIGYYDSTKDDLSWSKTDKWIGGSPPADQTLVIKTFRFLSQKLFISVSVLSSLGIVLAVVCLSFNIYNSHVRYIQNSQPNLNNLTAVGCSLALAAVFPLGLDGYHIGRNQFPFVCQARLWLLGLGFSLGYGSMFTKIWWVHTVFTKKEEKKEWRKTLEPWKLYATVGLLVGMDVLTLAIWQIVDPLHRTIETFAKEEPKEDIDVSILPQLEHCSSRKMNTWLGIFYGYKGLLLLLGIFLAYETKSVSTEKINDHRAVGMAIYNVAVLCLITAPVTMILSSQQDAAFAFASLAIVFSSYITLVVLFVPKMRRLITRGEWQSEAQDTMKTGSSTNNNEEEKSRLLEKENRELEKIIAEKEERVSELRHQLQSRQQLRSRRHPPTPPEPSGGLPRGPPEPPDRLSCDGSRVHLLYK
T1 sequence (O75899 42-941): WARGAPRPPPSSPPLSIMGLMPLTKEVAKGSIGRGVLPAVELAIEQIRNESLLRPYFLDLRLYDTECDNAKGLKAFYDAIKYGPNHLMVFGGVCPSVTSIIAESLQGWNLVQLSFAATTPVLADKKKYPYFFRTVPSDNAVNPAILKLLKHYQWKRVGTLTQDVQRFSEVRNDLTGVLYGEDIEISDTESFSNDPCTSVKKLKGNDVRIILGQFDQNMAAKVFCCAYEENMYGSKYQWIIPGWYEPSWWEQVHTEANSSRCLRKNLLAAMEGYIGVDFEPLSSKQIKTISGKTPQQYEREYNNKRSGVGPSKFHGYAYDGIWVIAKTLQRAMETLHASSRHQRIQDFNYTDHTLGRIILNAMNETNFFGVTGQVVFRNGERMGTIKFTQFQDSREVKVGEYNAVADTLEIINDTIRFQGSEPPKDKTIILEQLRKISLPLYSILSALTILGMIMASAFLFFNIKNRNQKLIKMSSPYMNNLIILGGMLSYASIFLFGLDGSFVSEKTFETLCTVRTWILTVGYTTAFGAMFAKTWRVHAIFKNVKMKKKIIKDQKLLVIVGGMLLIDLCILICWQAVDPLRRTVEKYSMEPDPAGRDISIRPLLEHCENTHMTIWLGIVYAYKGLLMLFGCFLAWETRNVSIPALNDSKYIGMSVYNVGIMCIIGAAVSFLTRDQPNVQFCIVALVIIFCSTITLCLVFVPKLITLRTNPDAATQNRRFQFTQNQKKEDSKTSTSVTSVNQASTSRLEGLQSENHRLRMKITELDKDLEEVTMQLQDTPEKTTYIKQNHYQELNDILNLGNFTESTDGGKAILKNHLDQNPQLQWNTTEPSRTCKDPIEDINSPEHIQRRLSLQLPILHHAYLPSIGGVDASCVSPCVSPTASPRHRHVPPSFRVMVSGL
Procedure: (§1) CHO cells expressing the human GABAB1 and GABAB2 receptor subunits co-expressing promiscuous Galpha16 proteins to force couple the receptor to the intracellular calcium signalling pathway were used to study GABAB pharmacology in vitro. The cells were maintained at 37° C. in a 5% CO2 95% air atmosphere in HAM F-12 medium supplemented with 10% foetal bovine serum and selection antibiotics.
(§2) The day before the experiment the cells were detached and plated into black-walled clear bottom 384-well plates at a cell density of 20 000 cells per well. The growth medium was removed and the cells were incubated with FLIPR Calcium 5 Assay reagent (Molecular Devices, CA, USA) diluted 1:1 in Probenecid-Ringer for 1 h at 37° C. in dark. Probenecid-Ringer buffer consisted of 150 mM NaCl, 3 mM KCl, 1.2 mM MgCl2, 1 mM CaCl2, 5 mM glucose, 20 mM 2-(4-(2-hydroxyethyl)piperazin-1-yl)ethanesulfonic acid (HEPES), and 2.5 mM Probenecid (pH 7.4 adjusted with 1.0 M NaOH and osmolarity adjusted to […]). Compounds were dissolved in Probenecid-Ringer. […] The samples were excited at 470-495 nm and emission was detected at 515-575 nm. All experiments were performed at 37° C.
(§3) Baseline fluorescence minimum was subtracted from maximum for the calculation of agonism and positive allosteric modulator pharmacology. Both in the agonism mode and in the allosteric mode, the efficacy was related to the intrinsic activity (IA) of the endogenous agonist GABA at 30 μM (positive allosteric modulator efficacy at 10 μM/GABA efficacy or agonism efficacy at 30 μM/GABA efficacy). To determine potentiation of GABA dose-response, the compounds, at a concentration of 10 μM diluted in Probenecid-Ringer, were added by FLIPR tetra followed by addition of GABA (diluted in water in the concentration range 0.123-10 μM). The EC50 values were determined using a four-parameter logistic fit (model 205 in ActivityBase XE). The EC50 value of GABA was divided with the EC50 value of GABA in the presence of positive allosteric modulator to determine potentiation of GABA dose-response EC50 value.

[2] = target: T1, human GABAB1 and GABAB2 receptor subunits; assay: Agonism and positive allosteric modulator pharmacology in vitro, two-addition FLIPR calcium assay; assay type: cell-based; settings: CHO cells co-expressing Galpha16; for IA (GABAB agonism): agonism efficacy at 30 μM / GABA efficacy at 30 μM; for IA (GABAB positive allosteric modulation): positive allosteric modulator efficacy at 10 μM (with EC10.5 GABA) / GABA efficacy at 30 μM
Procedure: as §1, §2
A two-addition protocol was used to determine agonism and positive allosteric modulator pharmacology in the same assay using a kinetic read out. Agonism pharmacology of compounds was studied in the first addition in the concentration range 0.123-30 μM in quadruplicate at each concentration. In the second addition, a low (EC10.5) concentration of GABA was applied to detect the positive allosteric modulator pharmacology of the compounds to be studied. The EC10.5 concentration was determined from the GABA EC50 value using the formula ECF≈(F/(100-F))^1/H·EC50, wherein F is the fraction of full response and H is Hill slope.
as §3

Structure (SMILES) | Potentiation of GABA (fold) [1] | IA (GABAB agonism) [2] | IA (GABAB positive allosteric modulation) [2]
CC(C)(O)Cn1c(=O)n(Cc2ccc(Cl)cc2)c(=O)c2cc(Cl)cc(F)c21 [Example 131, 6-Chloro-3-(4-chlorobenzyl)-8-fluoro-1-(2-hydroxy-2-methylpropyl)quinazoline-2,4(1H,3H)-dione] | 42.6 fold | 0.19 | 0.89
CCn1c(=O)n(Cc2ccc(Br)cc2)c(=O)c2ccc(F)cc21 [Example 87, 3-(4-Bromobenzyl)-1-ethyl-7-fluoroquinazoline-2,4(1H,3H)-dione] | 3.3 fold | 0.11 | 0.44
Cn1c(=O)n(C2(c3ccc(Cl)cc3)CC2)c(=O)c2ccc(F)cc21 [Example 43, 3-(1-(4-Chlorophenyl)cyclopropyl)-7-fluoro-1-methylquinazoline-2,4(1H,3H)-dione] | 3.8 fold | 0.17 | 0.51
CC(C)(O)Cn1c(=O)n(Cc2ccc(Cl)c(Oc3ccccc3)c2)c(=O)c2ccc(F)cc21 [Example 41, 3-(4-Chloro-3-phenoxybenzyl)-7-fluoro-1-(2-hydroxy-2-methylpropyl)quinazoline-2,4(1H,3H)-dione] | 2.8 fold | 0.10 | 0.47
Cn1c(=O)n(Cc2ccc(Br)cc2)c(=O)c2ccc(F)cc21 [Example 33, 3-(4-Bromobenzyl)-7-fluoro-1-methylquinazoline-2,4(1H,3H)-dione] | 4.8 fold | 0.23 | 0.45
CC1(C)Cn2c(=O)n(Cc3ccc(Br)cc3)c(=O)c3ccc(Cl)c(c32)O1 [Example 127, 6-(4-Bromobenzyl)-10-chloro-2,2-dimethyl-2H-[1,4]oxazino[2,3,4-ij]quinazoline-5,7(3H,6H)-dione] | 6.7 fold | 0.02 | 0.53
C[C@H](c1ccc(Cl)cc1)n1c(=O)c2ccc(Cl)cc2n(CC2(C)COC2)c1=O [Example 137, (R)-7-Chloro-3-(1-(4-chlorophenyl)ethyl)-1-((3-methyloxetan-3-yl)methyl)quinazoline-2,4(1H,3H)-dione] | 19.7 fold | 0.05 | 0.64
Cn1c(=O)n(Cc2ccc(Br)cc2)c(=O)c2ccc(Cl)cc21 [Example 18, 3-(4-Bromobenzyl)-7-chloro-1-methylquinazoline-2,4(1H,3H)-dione] | 1.6 fold | 0.06 | 0.43
CC(C)(C)C(=O)Cn1c(=O)n(Cc2ccc(Br)cc2)c(=O)c2ccc(F)cc21 [Example 26, 3-(4-Bromobenzyl)-1-(3,3-dimethyl-2-oxobutyl)-7-fluoroquinazoline-2,4(1H,3H)-dione] | 1.7 fold | 0.08 | 0.48
CC1(C)Cn2c(=O)n(Cc3ccc(Cl)cc3)c(=O)c3ccc(Cl)c(c32)O1 [Example 67, 10-Chloro-6-(4-chlorobenzyl)-2,2-dimethyl-2H-[1,4]oxazino[2,3,4-ij]quinazoline-5,7(3H,6H)-dione] | 9.5 fold | 0.02 | 0.71
C[C@@H](O)Cn1c(=O)n(Cc2ccc(Cl)cc2)c(=O)c2ccc(Cl)c(F)c21 [Example 82, (R)-7-Chloro-3-(4-chlorobenzyl)-8-fluoro-1-(2-hydroxypropyl)quinazoline-2,4(1H,3H)-dione] | 24.5 fold | 0.18 | 0.71
CC(C)(O)Cn1c(=O)n(Cc2ccc(Br)cc2)c(=O)c2cc(F)c(F)c(F)c21 [Example 60, 3-(4-Bromobenzyl)-6,7,8-trifluoro-1-(2-hydroxy-2-methylpropyl)quinazoline-2,4(1H,3H)-dione] | 89 fold | 0.20 | 0.85
C[C@H](c1ccc(Cl)cc1)n1c(=O)c2ccc(Cl)cc2n(CC(C)(C)O)c1=O [Example 117, (R)-7-Chloro-3-(1-(4-chlorophenyl)ethyl)-1-(2-hydroxy-2-methylpropyl)quinazoline-2,4(1H,3H)-dione] | 19.8 fold | 0.09 | 0.51
CC1(C)Cn2c(=O)n(Cc3ccc(Br)cc3)c(=O)c3cc(F)c(F)c(c32)O1 [Example 66, 6-(4-Bromobenzyl)-9,10-difluoro-2,2-dimethyl-2H-[1,4]oxazino[2,3,4-ij]quinazoline-5,7(3H,6H)-dione] | 12.7 fold | 0.04 | 0.77
CC(C)(O)Cn1c(=O)n(Cc2ccc(Br)cc2)c(=O)c2cc(F)c(Cl)cc21 [Example 49, 3-(4-Bromobenzyl)-7-chloro-6-fluoro-1-(2-hydroxy-2-methylpropyl)quinazoline-2,4(1H,3H)-dione] | 31 fold | 0.28 | 0.61
COc1c(F)cc2c(=O)n(Cc3ccc(Br)cc3)c(=O)n3c2c1OC(C)(C)C3 [Example 84, 6-(4-Bromobenzyl)-9-fluoro-10-methoxy-2,2-dimethyl-2H-[1,4]oxazino[2,3,4-ij]quinazoline-5,7(3H,6H)-dione] | 33.4 fold | 0.10 | 0.86
C[C@H](c1ccc(Cl)cc1)n1c(=O)c2ccc(F)cc2n(C)c1=O [Example 42, (R)-3-(1-(4-Chlorophenyl)ethyl)-7-fluoro-1-methylquinazoline-2,4(1H,3H)-dione] | 7.3 fold | 0.18 | 0.37
CC1(Cn2c(=O)n(Cc3ccc(Br)cc3)c(=O)c3cc(F)c(Cl)cc32)COC1 [Example 50, 3-(4-Bromobenzyl)-7-chloro-6-fluoro-1-((3-methyloxetan-3-yl)methyl)quinazoline-2,4(1H,3H)-dione] | 22 fold | 0.04 | 0.73
CC(C(N)=O)n1c(=O)n(Cc2ccc(Br)cc2)c(=O)c2ccc(F)cc21 (stereo not drawn) [Example 37, 2-(3-(4-Bromobenzyl)-7-fluoro-2,4-dioxo-3,4-dihydroquinazolin-1(2H)-yl)propanamide] | 1.9 fold | 0.21 | 0.39
CC(C)(O)Cn1c(=O)n(Cc2ccc(Br)cc2)c(=O)c2ccc(F)cc21 [Example 39, 3-(4-Bromobenzyl)-7-fluoro-1-(2-hydroxy-2-methylpropyl)quinazoline-2,4(1H,3H)-dione] | 23.1 fold | 0.30 | 0.85
CC(C)(O)Cn1c(=O)n(Cc2ccc(Br)cc2)c(=O)c2ccc(Cl)c(F)c21 [Example 123, 3-(4-Bromobenzyl)-7-chloro-8-fluoro-1-(2-hydroxy-2-methylpropyl)quinazoline-2,4(1H,3H)-dione] | 60.4 fold | 0.13 | 0.71
CC(C)n1c(=O)n(Cc2ccc(Br)cc2)c(=O)c2ccc(F)cc21 [Example 38, 3-(4-Bromobenzyl)-7-fluoro-1-isopropylquinazoline-2,4(1H,3H)-dione] | 3.5 fold | 0.13 | 0.21
CC(C)(O)Cn1c(=O)n(Cc2ccc(Cl)c(Cl)c2)c(=O)c2ccc(C(F)(F)F)cc21 [Example 2, 3-(3,4-Dichlorobenzyl)-1-(2-hydroxy-2-methylpropyl)-7-(trifluoromethyl)quinazoline-2,4(1H,3H)-dione] | 11 fold | 0.14 | 0.65
